Laboratory results as given in patent US6180599A, “Pharmaceutical composition, containing medium-chain fatty acids as active ingredients, for dental caries and periodontal disease” (priority 1997, dated 2001).

Columns and labels:
[1] = Extracellular polysaccharide in liquid medium with fatty acid, no bacteria
Protocol: (§1) In order to identify the effect by which medium-chain fatty acids inhibit plaque matrix formation, inhibitory effect and concentration of extracellular polysaccharide synthesis were determined in seven kinds of standard cariogenic plaque bacteria. Also, the inhibitory effect of extracellular polysaccharide synthesis for 20 kinds of cariogenic plaque bacteria, separated from the human oral cavity, was measured. Liquid culture media used were: Todd-Hewitt broth of Streptococcus, Lactobacilli MRS broth of Lactobacillus and Brain Heart Infusion broth of Actinomyces. 0.1 ml of bacterial (or cell) suspension (OD600 =0.5) of each bacteria was inoculated to 5.9 ml of culture media containing 1 mM of medium-chain fatty acids and 2% of glucose, and was cultured for 24^~ 48 hours in 10% CO2 incubator. After culturing, the resultant was centrifuged to precipitate at 5,000×g for 15 minutes, then soluble extracellular polysaccharide was separated and purified from the supernatant and insoluble extracellular polysaccharide from the cell pellet, and then these were quantified.

[2] = system: cariogenic plaque bacteria (standard strains); assay: Inhibitory effect of bacterial growth, standard strains; type: cell-based, Streptococcus, Lactobacillus and Actinomyces
Protocol: In order to evaluate how medium-chain fatty acids influence bacterial growth of cariogenic plaque bacteria, the influence on each bacteria was evaluated after selecting seven kinds of bacterial strains as standard bacteria among cariogenic plaque bacteria. […] The results that medium-chain fatty acids have on influencing bacterial growth of cariogenic plaque bacteria is shown in FIG. 3. And the result of measuring inhibitory effect of bacterial growth of 20 kinds of cariogenic plaque bacteria separated from the human oral cavities is shown in FIG. 4.

Streptococcus mutans = assay: Extracellular polysaccharide synthesis in plaque bacteria separated from human oral cavities; type: cell-based; settings: 1 mM
Protocol: as §1, with “quantified. So the experimental results that represent inhibitory effect of medium-chain fatty acids upon extracellular polysaccharide synthesis, are shown in table 1, 2, 3 and 4.” for “quantified.”

Streptococcus sobrinus = assay: as above; type: cell-based; settings: isolate XX, 1 mM
Protocol: as §1, with “quantified. So the experimental results that represent inhibitory effect of medium-chain fatty acids upon extracellular polysaccharide synthesis, are shown in table 1, 2, 3 and 4.” for “quantified.”

Lactobacillus casei = assay: as above; type: cell-based; settings: 1 mM
Protocol: as §1, with “quantified. So the experimental results that represent inhibitory effect of medium-chain fatty acids upon extracellular polysaccharide synthesis, are shown in table 1, 2, 3 and 4.” for “quantified.”

## CCCCCCCCCCCC(=O)[O-].[Na+] [C12, sodium laurate]
[1]; Table 1, 1 mM
  Extracellular polysaccharide, soluble: 1.4 ± 0.1 µg/mL
[1]; Table 2, 1 mM
  Extracellular polysaccharide, soluble: 4.6 ± 1.3 µg/mL
[1]; Table 3, 1 mM
  Extracellular polysaccharide, soluble: 4.4 ± 0.2 µg/mL
[2]; 0.5-8 mM, pH 5.0 and 7.0, OD 600 nm, 24-48 hours
  inhibitory effect of bacterial growth (in words): almost completely inhibits
[2]; ranking, FIG. 3
  inhibitory effect of bacterial growth, sequence: sodium laurate>sodium capriate>sodium nonanoate
Streptococcus mutans; isolate XI
  Inhibitory rate: 70%
Streptococcus mutans; isolate XI, control 95.2 ± 8.3
  Soluble extracellular polysaccharide: 28.6 ± 3.5 µg/mL
Streptococcus mutans; isolate XII
  Inhibitory rate: 58%
Streptococcus mutans; isolate XII, control 84.2 ± 8.6
  Soluble extracellular polysaccharide: 35.2 ± 5.0 µg/mL
Streptococcus mutans; isolate XIII
  Inhibitory rate: 69%
Streptococcus mutans; isolate XIII, control 90.5 ± 8.3
  Soluble extracellular polysaccharide: 27.7 ± 3.3 µg/mL
Streptococcus mutans; isolate XIV
  Inhibitory rate: 53%
Streptococcus mutans; isolate XIV, control 90.5 ± 2.9
  Soluble extracellular polysaccharide: 42.6 ± 1.0 µg/mL
Streptococcus mutans; isolate XIX
  Inhibitory rate: 70%
Streptococcus mutans; isolate XIX, control 113.7 ± 6.8
  Soluble extracellular polysaccharide: 34.3 ± 3.3 µg/mL
Streptococcus mutans; isolate XV
  Inhibitory rate: 62%
Streptococcus mutans; isolate XV, control 117.9 ± 4.6
  Soluble extracellular polysaccharide: 44.5 ± 1.7 µg/mL
Streptococcus mutans; isolate XVI
  Inhibitory rate: 66%
Streptococcus mutans; isolate XVI, control 143.2 ± 11.1
  Soluble extracellular polysaccharide: 48.2 ± 4.5 µg/mL
Streptococcus mutans; isolate XVII
  Inhibitory rate: 67%
Streptococcus mutans; isolate XVII, control 107.8 ± 17.0
  Soluble extracellular polysaccharide: 35.4 ± 2.1 µg/mL
Streptococcus mutans; isolate XVIII
  Inhibitory rate: 59%
Streptococcus mutans; isolate XVIII, control 98.5 ± 9.0
  Soluble extracellular polysaccharide: 40.5 ± 1.7 µg/mL
Streptococcus sobrinus
  Inhibitory rate: 79%
Streptococcus sobrinus; control 116.0 ± 17.2
  Soluble extracellular polysaccharide: 24.0 ± 1.5 µg/mL
Lactobacillus casei; isolate I
  Inhibitory rate: 76%
Lactobacillus casei; isolate I, control 105.1 ± 7.2
  Soluble extracellular polysaccharide: 25.1 ± 1.7 µg/mL
Lactobacillus casei; isolate II
  Inhibitory rate: 71%
Lactobacillus casei; isolate II, control 121.4 ± 27.1
  Soluble extracellular polysaccharide: 35.0 ± 2.9 µg/mL
Lactobacillus casei; isolate III
  Inhibitory rate: 75%
Lactobacillus casei; isolate III, control 140.4 ± 4.9
  Soluble extracellular polysaccharide: 34.7 ± 0.9 µg/mL
Lactobacillus casei; isolate IV
  Inhibitory rate: 74%
Lactobacillus casei; isolate IV, control 151.4 ± 7.6
  Soluble extracellular polysaccharide: 38.8 ± 4.1 µg/mL
Lactobacillus casei; isolate IX
  Inhibitory rate: 79%
Lactobacillus casei; isolate IX, control 214.6 ± 18.8
  Soluble extracellular polysaccharide: 46.1 ± 3.0 µg/mL
Lactobacillus casei; isolate V
  Inhibitory rate: 73%
Lactobacillus casei; isolate V, control 137.4 ± 21.8
  Soluble extracellular polysaccharide: 36.6 ± 4.3 µg/mL
Lactobacillus casei; isolate VI
  Inhibitory rate: 74%
Lactobacillus casei; isolate VI, control 184.6 ± 6.5
  Soluble extracellular polysaccharide: 48.5 ± 2.7 µg/mL
Lactobacillus casei; isolate VII
  Inhibitory rate: 70%
Lactobacillus casei; isolate VII, control 149.9 ± 16.8
  Soluble extracellular polysaccharide: 44.7 ± 3.1 µg/mL
Lactobacillus casei; isolate VIII
  Inhibitory rate: 72%
Lactobacillus casei; isolate VIII, control 221.6 ± 20.1
  Soluble extracellular polysaccharide: 62.6 ± 3.4 µg/mL
Lactobacillus casei; isolate X
  Inhibitory rate: 72%
Lactobacillus casei; isolate X, control 201.7 ± 36.1
  Soluble extracellular polysaccharide: 56.3 ± 8.2 µg/mL
